From patent US12410155B2, “Salt form and crystal form of tetrahydrocyclohepta indazole compound” (Zhejiang Yangli Pharmaceutical Technology Co., Ltd., priority 2021, dated 2025)
Like-named read-outs stand apart in the source and are kept apart here.

Assays:
[1] = molecular target: T1, ERα (Homo sapiens, UniProt P03372); test: ERα degradation assay (ICW) in MCF-7, T-47D and CAMA-1 cells; format: cell-based; details: 4 hours, read-out: IC50 (nM), degradation effect on ERα
T1 construct: degradation effects on ERα in various breast cancer cell lines; endogenous in cells; host or cells: MCF-7, T-47D, CAMA-1
T1 sequence (P03372 1-595): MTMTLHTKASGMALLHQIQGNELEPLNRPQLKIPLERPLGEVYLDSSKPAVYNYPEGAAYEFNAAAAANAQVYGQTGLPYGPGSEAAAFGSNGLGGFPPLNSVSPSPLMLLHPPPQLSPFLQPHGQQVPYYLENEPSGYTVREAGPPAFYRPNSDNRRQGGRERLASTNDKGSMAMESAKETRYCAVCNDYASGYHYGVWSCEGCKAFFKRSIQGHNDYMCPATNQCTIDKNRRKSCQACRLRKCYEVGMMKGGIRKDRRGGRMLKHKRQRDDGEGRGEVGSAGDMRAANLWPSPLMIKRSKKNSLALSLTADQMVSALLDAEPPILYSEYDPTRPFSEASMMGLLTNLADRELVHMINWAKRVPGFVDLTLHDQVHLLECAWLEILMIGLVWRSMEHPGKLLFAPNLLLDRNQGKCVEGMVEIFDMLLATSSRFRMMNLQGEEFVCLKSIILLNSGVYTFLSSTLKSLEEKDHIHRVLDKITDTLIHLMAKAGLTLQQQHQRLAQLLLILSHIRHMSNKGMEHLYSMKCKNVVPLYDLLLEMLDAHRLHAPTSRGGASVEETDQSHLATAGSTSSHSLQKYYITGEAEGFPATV
Protocol: (3) ERα Degradation Assay in MCF-7, T-47D, and CAMA-1 Cells
• 1) The complete culture medium was aspirated from the culture flask, followed by the addition of an appropriate amount of trypsin for rinsing. The trypsin solution was then aspirated to remove residual serum. • 2) Subsequently, an appropriate amount of trypsin was added for a second rinse and aspirated. The culture flask was placed in an incubator for 2-3 minutes, then removed, and gently agitated to detach the cells. • 3) The cells were resuspended in fresh complete culture medium and counted using a cell counter. • 4) The cell suspension was prepared according to the required plating density. • 5) A volume of 30.0 μL of the cell suspension was added to each well of a 384-well plate. • 6) The experimental plate was placed in a centrifuge and centrifuged at 1000 rpm for 1 minute. • 7) The experimental plate was then incubated overnight in a cell incubator. • 8) According to the sample addition diagram of experimental plate (refer to 3.5.1), 20.0 μL of the diluted test sample was added to each well. […] The plate was incubated at 4° C. overnight. • 19) The primary antibody solution in the plate was discarded, and the plate was washed five times with PBS using a multidrop. • 20) A mixture of 25 μL of secondary antibody and DRAQ5 was added to each well, and incubated at room temperature for 1 hour. • 21) The plate was washed five times with PBS using a multidrop. • 22) The plate was washed with ddH2O twice, and patted dry. • 23) The plate was subsequently read using the Odyssey infrared imaging system. […]
The IC50 values were calculated using GraphPad Prism 7.0, a data analysis software.
This experiment evaluated the effect of compound of formula (I) on the expression of ERα protein in MCF-7, T-47D, and CAMA-1 cells. The expression levels of ERα protein were detected using the ICW assay after 4 hours of drug treatment.

[2] = molecular target: T2, ERα (Homo sapiens, UniProt P03372); test: HEK293/GAL4/ERα antagonist assay (luciferase reporter); format: cell-based; details: 1 nM estradiol, read-out: IC50 (nM), antagonistic effect
T2 sequence (P03372 311-547 limits assumed): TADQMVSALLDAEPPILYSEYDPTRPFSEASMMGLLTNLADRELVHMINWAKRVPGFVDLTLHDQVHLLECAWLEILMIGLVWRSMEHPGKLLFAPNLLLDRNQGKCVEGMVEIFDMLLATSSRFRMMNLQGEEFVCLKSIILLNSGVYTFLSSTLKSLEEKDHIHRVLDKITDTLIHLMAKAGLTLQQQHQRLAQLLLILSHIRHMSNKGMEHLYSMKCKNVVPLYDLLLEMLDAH
Protocol: (2) HEK293/GAL4/ERα Antagonist Assay
DMEM (without phenol red) containing 10% charcoal-stripped serum (i.e., 450 mL DMEM and 50 mL charcoal-stripped serum in 500 mL medium)
The antagonistic effect of the compound of formula (I) on ERα, was analyzed using triplicate wells with compound concentration ranging from 200 nM to 0.00256 nM.
• 1) The HEK293/GAL4/ERα cell suspension was collected and centrifuged at 1000 rpm for 5 minutes. The supernatant was discarded, and the cells were resuspended in pre-warmed experimental medium. After counting, the cell suspension was diluted with experimental medium. 40000 cells per well were seeded into a 96-well cell culture plate, with 80 μL of cell suspension per well. […] Subsequently, 10 μL of assay medium containing 10 nM estradiol was added to each well. For blank controls, 10 μL of assay medium was added. A final estradiol concentration of 1 nM was ensured. […] The plate was incubated at 25° C. for 2 minutes. After incubation, the luminescence signal was then detected using an EnVision plate reader. Data Analysis:
GraphPad Prism software was used to plot the data and calculate the IC50 values for the compound.

With `FCCCN1CC[C@H](Nc2cnc(C3=C(CC(F)(F)F)CCCc4c3ccc3[nH]nc(F)c43)cn2)C1` [Compound of formula (I)] as the molecule, how does the DC50 ([1]; CAMA-1 cells) read?
Its DC50 is 1.25 nM.

What about the DC50 ([1]; MCF-7 cells) of the same molecule?
Its DC50 is 0.235 nM.

And the DC50 ([1]; T-47D cells)?
Its DC50 is 0.78 nM.

What about the IC50 ([2]; Mean ± SD) of the same molecule?
The IC50 was 0.0857 ± 0.0103 nM.

What about the IC50 ([2]; N = 1) of the same molecule?
Its IC50 is 0.096 nM.

And the IC50 ([2]; N = 2)?
Its IC50 is 0.075 nM.
